Source: patent US20080261931A1, “Method and Means of Preventing and Treating Sleep Disordered Breathing” (Cereu-Science AB, priority 2005, published 2008)

Columns and labels:
[1] = test system: patient with obstructive sleep apnea; experiment: Repeated dosing, multiple medication study with calcium acamprosate and a weight reducing agent (sibutramine); polysomnographic investigation; type: in vivo, human
Method: The patient had recently been started on sibutramine (Reductil® capsules, 15 mg once daily) for weight loss. A follow-up sleep investigation (investigation 2) was performed 126 days later when the patient presented a BMI of 31.8. The AHI at this occasion was 19. Calcium acamprosate therapy was started on 333 mg three times per day orally (Campral® tablets) and increased to twice 333 mg three times per day after two weeks. At the end of this treatment period of four weeks (investigation 3) the BMI was marginally changed compared with investigation 2 (31.6) but AHI had decreased to 9.

OSA patient = experiment: Repeated dosing study with calcium acamprosate in an OSA patient (polysomnographic recording); type: in vivo, human
Excerpt: A study of repeated calcium acamprosate dosing was undertaken in a patient with a BMI of 32.2. This patient had not consumed any alcohol during the 3 months proceeding the current medication period. The patient suffered from moderate OSA (as determined by an AH index in excess of 35 during previous clinical 8-channel overnight monitoring studies). The contribution from central apneas was low and constituted 5% of obstructive events, respectively. A baseline polysomnographic recording (standard sleep montage, nasal pressure recording) was undertaken at baseline and calcium acamprosate therapy was started on 333 mg three times per day orally (Campral® tablets) with an increase to 2 times 333 mg three times per day after two weeks. Key parameters (indices) were recorded at first dosing and after daily dosing for three weeks (Table).

[2] = pending dosage, route of administration, and dosing scheme; extended in renal impairment; cited from earlier work
[3] = Week 0, investigation 1 (admission), recently started on sibutramine 15 mg once daily
[4] = Week 18, investigation 2 (126 days later), sibutramine 15 mg once daily
[5] = Week 3 of oral calcium acamprosate, Week 0 baseline 3

SMILES | AHI (apnea/hypopnea index, number of obstructive apneic/hypopneic events per hour of sleep) [1, 3] | BMI (body mass index) [1, 3] [kg/m^2] | AHI (apnea/hypopnea index, number of obstructive apneic/hypopneic events per hour of sleep) [1, 4] | BMI (body mass index) [1, 4] [kg/m^2] | CSAI (central sleep apnea index, number of central apneic events per hour of sleep) (OSA patient; [5]) | Sat <90%/hr (number of apneic/hypopneic episodes per hour of sleep with an oxygen saturation below 90%) (OSA patient; [5]) | AI (apnea index, number of obstructive apneic events per hour of sleep) (OSA patient; Week 3 of oral calcium acamprosate, Week 0 baseline 18) | HI (hypopnea index, number of obstructive hypopneic events per hour of sleep) (OSA patient; Week 3 of oral calcium acamprosate, Week 0 baseline 22) | AHI (apnea/hypopnea index, number of obstructive apneic/hypopneic events per hour of sleep) (OSA patient; Week 3 of oral calcium acamprosate, Week 0 baseline 40) | MinSat (lowest oxygen saturation value recorded during the period of sleep) (OSA patient; Week 3 of oral calcium acamprosate, Week 0 baseline 86) | Number of central and mixed events (OSA patient; after calcium acamprosate, polysomnography) | Daytime sleepiness (patient-reported) (OSA patient; already after one week) | Snoring (patient-reported) (OSA patient; early after introduction of the medication) | Apnea reducing effect in sleep apnea (OSA patient; obstructive and seemingly central events, maintained over the entire study period) | Side effects (OSA patient; three-week study, one patient) | Apnea reducing effect in a patient with sleep apnea ([1]; added to sibutramine) | Effect of calcium acamprosate in comparison with that obtained by the weight reducing agent ([1]; combined with sibutramine) | Half-life in plasma [2] [h]
CC(C)CC(N(C)C)C1(c2ccc(Cl)cc2)CCC1 (stereo not drawn) [Sibutramine, sibutramine] | 30 events per hour of sleep | 33.2 | 19 events per hour of sleep | 31.8 | – | – | – | – | – | – | – | – | – | – | – | – | – | –
CC(=O)NCCCS(=O)(=O)O [calcium acamprosate] | – | – | – | – | 2 events per hour of sleep | 1 episodes per hour of sleep | 7 events per hour of sleep | 9 events per hour of sleep | 16 events per hour of sleep | 91 | seemed to decrease in proportion to the number of obstructive events | reduction in daytime sleepiness | notable reduction in snoring | potent apnea reducing effect | No significant side effects | potent apnea reducing effect | additive | 15 to 30
